Measurements as given in ChEMBL document CHEMBL3217613, “Novel thalidomide analogues with potent NFB and TNF expression inhibition” (Medchemcomm, 2011).

Assays:
Format in all cases: cell-based
Jurkat = assay: Cytotoxicity against human FRT-Jurkat cells assessed as reduction of cell viability by measuring cleaved caspase 3 at 10 uM by flow cytometer
[1] = target: T1, Nuclear factor NF-kappa-B complex (Homo sapiens) (UniProt Q00653+P19838+Q04206); assay: Inhibition of NFkappaB in human FRT-Jurkat cells expressing GFP assessed as reduction of TNF expression at 10 uM after 24 hrs by flow cytometry relative to control
T1 sequence (P19838 whole entry, looked up): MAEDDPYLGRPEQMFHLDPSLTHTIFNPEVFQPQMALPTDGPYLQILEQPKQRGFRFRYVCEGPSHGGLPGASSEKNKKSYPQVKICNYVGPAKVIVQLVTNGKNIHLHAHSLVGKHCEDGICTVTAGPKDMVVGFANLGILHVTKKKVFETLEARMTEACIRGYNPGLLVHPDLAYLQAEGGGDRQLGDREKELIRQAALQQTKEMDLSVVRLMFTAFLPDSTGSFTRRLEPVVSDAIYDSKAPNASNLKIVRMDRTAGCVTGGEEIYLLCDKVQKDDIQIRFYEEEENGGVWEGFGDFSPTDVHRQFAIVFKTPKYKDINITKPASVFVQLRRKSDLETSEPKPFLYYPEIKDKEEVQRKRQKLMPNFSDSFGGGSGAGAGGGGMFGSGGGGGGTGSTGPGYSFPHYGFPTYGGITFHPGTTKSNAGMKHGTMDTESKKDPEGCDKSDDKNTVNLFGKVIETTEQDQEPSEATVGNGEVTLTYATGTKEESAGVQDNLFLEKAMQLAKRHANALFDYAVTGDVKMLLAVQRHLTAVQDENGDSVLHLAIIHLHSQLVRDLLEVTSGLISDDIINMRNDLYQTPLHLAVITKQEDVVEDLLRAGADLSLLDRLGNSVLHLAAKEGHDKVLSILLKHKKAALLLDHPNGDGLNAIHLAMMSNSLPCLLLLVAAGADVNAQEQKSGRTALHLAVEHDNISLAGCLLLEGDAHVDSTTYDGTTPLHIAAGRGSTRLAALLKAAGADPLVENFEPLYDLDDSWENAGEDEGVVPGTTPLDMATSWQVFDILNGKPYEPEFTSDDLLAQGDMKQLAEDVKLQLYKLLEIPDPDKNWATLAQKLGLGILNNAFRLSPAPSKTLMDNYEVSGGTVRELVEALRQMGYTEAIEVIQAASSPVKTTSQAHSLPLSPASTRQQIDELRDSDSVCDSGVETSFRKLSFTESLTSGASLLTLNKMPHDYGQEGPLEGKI
T1 sequence (Q00653 whole entry, looked up): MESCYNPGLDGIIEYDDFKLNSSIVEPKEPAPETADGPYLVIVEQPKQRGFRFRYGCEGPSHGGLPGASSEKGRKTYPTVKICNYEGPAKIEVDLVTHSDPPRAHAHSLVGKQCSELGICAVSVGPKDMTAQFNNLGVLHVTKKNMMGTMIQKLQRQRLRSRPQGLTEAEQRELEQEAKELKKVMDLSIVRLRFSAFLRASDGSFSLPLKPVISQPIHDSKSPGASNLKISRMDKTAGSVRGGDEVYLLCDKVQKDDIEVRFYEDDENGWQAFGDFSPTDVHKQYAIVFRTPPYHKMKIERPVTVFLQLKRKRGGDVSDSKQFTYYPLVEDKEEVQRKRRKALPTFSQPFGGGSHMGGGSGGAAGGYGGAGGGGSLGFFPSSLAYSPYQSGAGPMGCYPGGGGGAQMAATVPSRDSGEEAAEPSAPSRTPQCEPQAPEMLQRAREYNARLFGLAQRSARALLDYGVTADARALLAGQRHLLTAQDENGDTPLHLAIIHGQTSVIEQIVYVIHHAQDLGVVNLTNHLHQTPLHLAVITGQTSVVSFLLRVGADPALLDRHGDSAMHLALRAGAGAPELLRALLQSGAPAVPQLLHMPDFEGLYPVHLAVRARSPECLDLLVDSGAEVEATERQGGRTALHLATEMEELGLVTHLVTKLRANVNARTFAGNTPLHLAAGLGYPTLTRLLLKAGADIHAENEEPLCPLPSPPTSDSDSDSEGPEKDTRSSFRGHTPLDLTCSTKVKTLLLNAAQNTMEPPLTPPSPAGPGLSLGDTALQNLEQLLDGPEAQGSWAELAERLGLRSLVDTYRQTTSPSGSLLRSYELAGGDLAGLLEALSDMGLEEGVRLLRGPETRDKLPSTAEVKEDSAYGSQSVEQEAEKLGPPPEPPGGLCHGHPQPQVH
T1 sequence (Q04206 whole entry, looked up): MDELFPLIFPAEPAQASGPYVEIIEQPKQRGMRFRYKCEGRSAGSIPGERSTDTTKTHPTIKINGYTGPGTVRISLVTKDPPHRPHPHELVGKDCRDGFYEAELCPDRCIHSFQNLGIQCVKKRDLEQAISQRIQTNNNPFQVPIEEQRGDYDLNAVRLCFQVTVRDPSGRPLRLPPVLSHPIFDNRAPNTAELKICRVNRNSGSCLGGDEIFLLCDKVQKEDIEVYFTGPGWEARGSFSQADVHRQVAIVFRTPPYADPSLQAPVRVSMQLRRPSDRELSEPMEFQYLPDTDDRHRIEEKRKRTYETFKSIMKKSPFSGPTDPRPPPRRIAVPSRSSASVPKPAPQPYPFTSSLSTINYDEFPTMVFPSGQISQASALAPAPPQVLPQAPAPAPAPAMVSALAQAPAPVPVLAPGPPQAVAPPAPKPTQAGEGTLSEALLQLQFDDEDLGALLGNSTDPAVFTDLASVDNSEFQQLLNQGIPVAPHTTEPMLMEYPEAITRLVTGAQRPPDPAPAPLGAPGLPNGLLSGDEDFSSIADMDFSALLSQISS

[2] = target: T1, Nuclear factor NF-kappa-B complex (Homo sapiens); assay: Inhibition of NFkappaB in human FRT-Jurkat cells expressing GFP assessed as reduction of TNF expression at 100 uM after 24 hrs by flow cytometry relative to control
[3] = target: T1, Nuclear factor NF-kappa-B complex (Homo sapiens); assay: Ratio of thalidomide to compound for inhibition of NFkappaB in human FRT-Jurkat cells expressing GFP assessed as reduction of TNF expression at 10 uM

inhibition [1] [%]	inhibition [2] [%]	Ratio [3]	Structure (SMILES)	Activity (Jurkat) [%]
13	–	–	COc1ccc(Nc2cccc3c2C(=O)N(C2CCC(=O)NC2=O)C3=O)cc1 (configuration not stated)	89
10	–	–	CCCc1ccc(Nc2ccc3c(c2)C(=O)N(C2CCC(=O)NC2=O)C3=O)cc1 (configuration not stated)	–
23	–	–	CCCc1ccc(Nc2cccc3c2C(=O)N(C2CCC(=O)NC2=O)C3=O)cc1 (configuration not stated)	89
2	–	–	Cc1ccccc1Nc1ccc2c(c1)C(=O)N(C1CCC(=O)NC1=O)C2=O (configuration not stated)	–
7	–	–	Cc1ccccc1Nc1cccc2c1C(=O)N(C1CCC(=O)NC1=O)C2=O (configuration not stated)	89
1	–	–	O=C1CCC(N2C(=O)c3cccc(Nc4ccccn4)c3C2=O)C(=O)N1 (configuration not stated)	89
9	–	–	O=C1CCC(N2C(=O)c3ccc(Nc4ccccn4)cc3C2=O)C(=O)N1 (configuration not stated)	–
10	–	–	CCOC(=O)c1ccc(Nc2cccc3c2C(=O)N(C2CCC(=O)NC2=O)C3=O)cc1 (configuration not stated)	89
4	6	–	Nc1cccc2c1CN(C1CCC(=O)NC1=O)C2=O (configuration not stated)	–
2	–	–	CC(=O)c1ccc(Nc2cccc3c2C(=O)N(C2CCC(=O)NC2=O)C3=O)cc1 (configuration not stated)	89
23	–	–	CCCCCc1ccc(Nc2cccc3c2C(=O)N(C2CCC(=O)NC2=O)C3=O)cc1 (configuration not stated)	89
36	–	–	CC(C)(C)c1ccc(Nc2cccc3c2C(=O)N(C2CCC(=O)NC2=O)C3=O)cc1 (configuration not stated)	89
4	–	–	O=C1CCC(N2C(=O)c3ccc(Nc4ccc(O)cc4)cc3C2=O)C(=O)N1 (configuration not stated)	–
11	–	–	CC(C)c1ccc(Nc2ccc3c(c2)C(=O)N(C2CCC(=O)NC2=O)C3=O)cc1 (configuration not stated)	–
5	–	–	CCOC(=O)c1ccc(Nc2ccc3c(c2)C(=O)N(C2CCC(=O)NC2=O)C3=O)cc1 (configuration not stated)	–
19	–	–	CC(C)c1ccc(Nc2cccc3c2C(=O)N(C2CCC(=O)NC2=O)C3=O)cc1 (configuration not stated)	89
4	16	–	O=C1CCC(N2C(=O)c3cccc(Nc4ccccc4)c3C2=O)C(=O)N1 (configuration not stated)	89
12	–	–	CCCCCc1ccc(Nc2ccc3c(c2)C(=O)N(C2CCC(=O)NC2=O)C3=O)cc1 (configuration not stated)	–
-2	–	–	CC(=O)c1ccc(Nc2ccc3c(c2)C(=O)N(C2CCC(=O)NC2=O)C3=O)cc1 (configuration not stated)	–
29	–	–	COc1ccc(Nc2ccc3c(c2)C(=O)N(C2CCC(=O)NC2=O)C3=O)cc1 (configuration not stated)	–
2	4	–	O=C1CCC(N2C(=O)c3ccccc3C2=O)C(=O)N1 (racemic)	–
6	17	2	O=C1CCC(N2C(=O)c3ccc(Nc4ccccc4)cc3C2=O)C(=O)N1 (configuration not stated)	–
5	–	–	CCc1ccc(Nc2ccc3c(c2)C(=O)N(C2CCC(=O)NC2=O)C3=O)cc1 (configuration not stated)	–
-2	–	–	CN(c1ccccc1)c1ccc2c(c1)C(=O)N(C1CCC(=O)NC1=O)C2=O (configuration not stated)	–
4	–	–	O=C1CCC(N2C(=O)c3cccc(Nc4ccc(O)cc4)c3C2=O)C(=O)N1 (configuration not stated)	89
17	–	–	CCc1ccc(Nc2cccc3c2C(=O)N(C2CCC(=O)NC2=O)C3=O)cc1 (configuration not stated)	89
5	–	–	Cc1ccc(Nc2ccc3c(c2)C(=O)N(C2CCC(=O)NC2=O)C3=O)cc1 (configuration not stated)	–
9	–	–	Cc1ccc(Nc2cccc3c2C(=O)N(C2CCC(=O)NC2=O)C3=O)cc1 (configuration not stated)	89
17	–	–	CC(C)(C)c1ccc(Nc2ccc3c(c2)C(=O)N(C2CCC(=O)NC2=O)C3=O)cc1 (configuration not stated)	–
